Data reported in patent publication US20230278993A1, “NOVEL TRICYCLIC AROMATIC HETEROCYCLIC COMPOUND AND PREPARATION METHOD THEREFOR, PHARMACEUTICAL COMPOSITION AND USE THEREOF” (SHANGHAI LONGWOOD BIOPHARMACEUTICALS CO., LTD., priority 2020, published 2023).

The compounds below were run against PD-1/PD-L1 (Homo sapiens (Human), UniProt Q9NZQ7) (assay: PD-1/PD-L1 homogeneous time-resolved fluorescence (HTRF) binding assay). Details: recombinant human PD-L1 (19-238) His-tagged, human PD-1 (25-167) Fc tag; 25° C., PBS pH 7.4.
Sequence of PD-1/PD-L1 (Q9NZQ7 19-238): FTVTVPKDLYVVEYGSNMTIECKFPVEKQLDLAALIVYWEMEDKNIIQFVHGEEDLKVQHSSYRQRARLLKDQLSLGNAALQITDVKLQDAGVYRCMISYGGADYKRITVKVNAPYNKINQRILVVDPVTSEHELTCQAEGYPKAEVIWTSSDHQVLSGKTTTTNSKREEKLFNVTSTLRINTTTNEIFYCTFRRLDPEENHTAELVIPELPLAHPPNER
Procedure: Example A: PD-1/PD-L1 Homogeneous Time-Resolved Fluorescence (HTRF) Binding Assay
Assays were performed in standard black 384-well polystyrene plates and a final volume was 20 μL. The inhibitor was first serially diluted with DMSO and added to the wells of the plate, followed by the addition of other reaction components. The final concentration of DMSO in the assay was 1%. Assays were performed at 25° C. in PBS buffer (pH 7.4) containing 0.05% Tween-20 and 0.1% BSA. Recombinant human PD-L1 protein (19-238) with a His-tagged at the C-terminus was purchased from AcroBiosystems (PD1-H5229). Recombinant human PD-1 protein (25-167) with an Fc tag at the C-terminus was also purchased from AcroBiosystems (PD1-H5257). The PD-L1 and PD-1 proteins were diluted in assay buffer and then […] of the solution was extracted and added to the wells of the plate. Plates were centrifuged and proteins and inhibitors were preincubated for 40 minutes. After incubation, […] of HTRF detection buffer containing europium […] labeled anti-human IgG (PerkinElmer-AD0212), Fc-specific and anti-His SureLight@-Allophycocyanin (APC, PerkinElmer-AD0059H) conjugated antibodies was added. After centrifugation, the plates were incubated at 25° C. for 60 minutes. Data was read in a PHERAstar FS plate reader (665 nm/620 nm ratio). Final concentrations in the assay were ˜3 nM of PD1, 10 nM of PD-L1, 1 nM of europium anti-human IgG, and 20 nM of anti-His-allophycocyanin. Activity data were fitted using GraphPad Prism 5.0 software to derive IC50 values for inhibitors.
The IC50 values of the compounds exemplified in the examples are expressed in the following manner: IC50: +: ≤100 nM; ++: 100 nM˜1000 nM; +++: >1000 nM. The data of the example compounds obtained using the PD-1/PD-L1 homogeneous time-resolved fluorescence (HTRF) binding assay described in Example A were provided in Table 1.

IC50, ≤ 100 nM:
O=C(O)[C@@H]1CCN([C@@H]2CCc3c2cc2cc(-c4cccc(-c5ccccc5)c4Cl)oc2c3F)C1 [Compound 005]
Cc1c(-c2ccc3c(c2)OCCO3)cccc1-c1cc2cc3c(c(C#N)c2o1)CC[C@H]3N1CC[C@@H](C(=O)O)C1 [Compound 013]
N#Cc1c2c(cc3nc(-c4cccc(-c5ccc6c(c5)OCCO6)c4Cl)oc13)[C@H](N1CC[C@@H](C(=O)NS(=O)(=O)C3CC3)C1)CC2 [Compound 025]
N#Cc1c2c(cc3nc(-c4cccc(-c5ccc6c(c5)OCCO6)c4Cl)oc13)[C@@H](N1CC[C@@H](C(=O)O)C1)CC2 [Compound 026]
Cc1c(-c2ccc3c(c2)OCCO3)cccc1-c1nc2cc3c(c(C#N)c2o1)CC[C@H]3N1CC[C@@H](C(=O)O)C1 [Compound 047]
Cc1c(-c2ccc3c(c2)OCCO3)cccc1-c1nc2cc3c(c(C#N)c2o1)CC[C@H]3NCCC(=O)O [Compound 049]
N#Cc1c2c(cc3nc(-c4cccc(-c5ccc6c(c5)OCCO6)c4Cl)oc13)[C@H](NCCC(=O)O)CC2 [Compound 050]
